Measured values taken from patent publication US20090105320A1, “Biodal Compositions Containing 1,2-Benzisothiazolin-3-One And 1,2-Dibromo-2,4-Dicyanobutane” (priority 2006, published 2009).
Read-outs that look alike come from different tables or passages of the source.

What was measured:
[1] = cited from earlier work
[2] = Solubilities of biocidal active substances in different solvents at 25° C.; assay type: physicochemical
[3] = Storage stability (appearance of solution) in different solvents at −5° C., +20° C. and +50° C., 14 days' storage; assay type: physicochemical
[4] = in Polyethylene glycol 300, 25° C.
[5] = in Polyethylene glycol 400/glycerol 3:1, 25° C.
[6] = in TEGDME (tetraethylene glycol dimethyl ether), 25° C.
[7] = in Butyl polyglycol, 14 days' storage
[8] = in Diethylene glycol, 14 days' storage
[9] = in Dimethyl sulfoxide, 14 days' storage
[10] = in N-Methylpyrrolidone, 14 days' storage
[11] = in Polyethylene glycol 300, 14 days' storage
[12] = in dimethyl sulfoxide or N-methylpyrrolidone

Compound	Solubility [25° C.] ([2]; in 2-Ethylhexanol, 25° C.)	Solubility [25° C.] ([2]; in Butyl diglycol, 25° C.) [%]	Solubility [25° C.] ([2]; in Butyl polyglycol, 25° C.) [%]	Solubility [25° C.] ([2]; in Diethylene glycol, 25° C.) [%]	Solubility [25° C.] ([2]; in Dimethyl sulfoxide, 25° C.) [%]	Solubility [25° C.] ([2]; in Dipropylene glycol, 25° C.) [%]	Solubility [25° C.] ([2]; in Glycerol, 25° C.)	Solubility [25° C.] ([2]; in N-Methylpyrrolidone, 25° C.) [%]	Solubility [25° C.] [2, 4] [%]	Solubility [25° C.] [2, 5] [%]	Solubility [25° C.] ([2]; in Polyglycol D 21/150, 25° C.) [%]	Solubility [25° C.] ([2]; in Polyglycol M 350, 25° C.) [%]	Solubility [25° C.] [2, 6] [%]	Storage stability at +20° C. [3, 7]	Storage stability at +50° C. [3, 7]	Storage stability at −5° C. [3, 7]	Storage stability at +20° C. [3, 8]	Storage stability at +50° C. [3, 8]	Storage stability at −5° C. [3, 8]	Storage stability at +20° C. [3, 9]	other results
O=c1[nH]sc2ccccc12 [1,2-Benzisothiazolin-3-one, 1,2-benzisothiazolin-3-one]	insoluble	7	10	7	30	5	insoluble	7	8	7	4	9	8	clear solution	clear solution	clear solution	clear solution	clear solution	clear solution	clear solution	Active substance content at which solutions are stable ([1]; propylene glycol/water or diethylene glycol/water mixture, U.S. Pat. No. 4,188,376, higher concentrated solutions liable to precipitation): below 5 % by weight; Solubility in water ([1]; water): sparingly soluble; Storage stability at +50° C. [3, 9]: clear solution; Storage stability at −5° C. [3, 9]: clear solution; Storage stability at +20° C. [3, 10]: clear solution; Storage stability at +50° C. [3, 10]: clear solution; Storage stability at −5° C. [3, 10]: clear solution; Storage stability at +20° C. [3, 11]: clear solution; Storage stability at +50° C. [3, 11]: clear solution; Storage stability at −5° C. [3, 11]: clear solution
N#CCCC(Br)(C#N)CBr (stereo not shown) [1,2-Dibromo-2,4-dicyanobutane, 1,2-dibromo-2,4-dicyanobutane]	insoluble	30	40	20	45	10	insoluble	40	35	20	15	45	45	clear, yellowish	clear, yellowish	clear, colorless	clear, colorless	clear, colorless	clear, colorless	brown solution	Chemical stability [1, 12]: chemically unstable; Solubility [1, 12]: readily soluble; Solubility ([1]; in solvents such as glycerol or 2-ethylhexanol): sparingly soluble; Storage stability at +50° C. [3, 9]: black solution; Storage stability at −5° C. [3, 9]: clear, yellowish; Storage stability at +20° C. [3, 10]: brown solution; Storage stability at +50° C. [3, 10]: black solution; Storage stability at −5° C. [3, 10]: clear, yellowish; Storage stability at +20° C. [3, 11]: clear, yellowish; Storage stability at +50° C. [3, 11]: clear, yellowish; Storage stability at −5° C. [3, 11]: clear, colorless
